Experiment [1] is described as follows: Trypanosoma cruzi growth suppression in host cells – NIH3T3 host cells, beta-gal luminescence, confirmation (AID 2044).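 Also: intracellular parasites grown in NIH/3T3 mouse fibroblasts as host cells; luminescent beta-galactosidase reporter signal from transgenic T. cruzi replicating inside host cells; inhibitors lower the luminescence signal.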 In kind it is functional, cell-based.
Experiment [2] in a line: NIH3T3 cell viability loss – ATP luminescence, mouse fibroblasts, counter-screen, dose response (AID 2010).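 Also: cells exposed to compound for about 90 hours before reading.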 In kind it is functional, cell-based.
A short description of experiment [3]: viability of HCT116 lacking mutant beta-catenin – cell-based, human colon tumor, dose response (AID 1045).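 Also: HCT116 colon tumor cells with beta catenin knocked out; cells exposed to compound for 60 hours.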 It counts as functional.
A short description of experiment [4]: viability of PTEN-deleted HCT116 cells – cell-based, HCT116 PTEN knockout, dose response (AID 1047).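 Also: HCT116 colon tumor cells with PTEN knocked out; cells exposed to compound for 60 hours before readout; potency for loss of cell viability measured by luminescence.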 It counts as functional.
The nature of experiment [5]: Vero E6 cell cytotoxicity, dose response, cytotoxicity control for non-replicating M. tuberculosis project, secondary assay (AID 492998). It counts as functional, VeroE6. The settings on record: Vero C1008.
Experiment [6] is described as follows: THP-1 cell cytotoxicity, dose response, cytotoxicity control for non-replicating M. tuberculosis project (AID 489025). In kind it is functional.
The nature of experiment [7]: cells. It counts as functional.
For experiment [8], the target named is Cytochrome P450 2C19 (Homo sapiens, UniProt P33261). Put plainly: Cytochrome panel assay with activity outcomes. Panel member name: p450-cyp2c19 Compounds with AC50 equal or less than 10 uM are considered active. In kind it is functional. To be noted: read-out: AC50.
Cytochrome P450 2C19, sequence (P33261 whole entry): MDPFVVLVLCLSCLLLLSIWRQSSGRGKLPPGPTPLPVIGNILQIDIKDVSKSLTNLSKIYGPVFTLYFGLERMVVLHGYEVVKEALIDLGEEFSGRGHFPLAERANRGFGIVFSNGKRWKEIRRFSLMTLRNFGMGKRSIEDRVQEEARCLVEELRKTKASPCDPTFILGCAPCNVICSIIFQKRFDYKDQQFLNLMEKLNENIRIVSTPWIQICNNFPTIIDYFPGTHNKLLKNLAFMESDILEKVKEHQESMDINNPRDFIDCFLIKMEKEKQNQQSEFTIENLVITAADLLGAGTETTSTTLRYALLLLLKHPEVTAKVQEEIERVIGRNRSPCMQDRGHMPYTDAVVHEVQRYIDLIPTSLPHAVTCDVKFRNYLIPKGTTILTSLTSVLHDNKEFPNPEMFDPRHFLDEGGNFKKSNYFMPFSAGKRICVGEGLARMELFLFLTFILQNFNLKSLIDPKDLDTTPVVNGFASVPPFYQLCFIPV
Experiment [9] has as its target Cytochrome P450 2D6 (Homo sapiens, UniProt P10635).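 Also: CYP2D6 member of a cytochrome P450 panel assay.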
Experiment [10] has as its target T1, Short transient receptor potential channel 4 (Mus musculus, UniProt Q9QUQ5).
T1 sequence (Q9QUQ5 whole entry): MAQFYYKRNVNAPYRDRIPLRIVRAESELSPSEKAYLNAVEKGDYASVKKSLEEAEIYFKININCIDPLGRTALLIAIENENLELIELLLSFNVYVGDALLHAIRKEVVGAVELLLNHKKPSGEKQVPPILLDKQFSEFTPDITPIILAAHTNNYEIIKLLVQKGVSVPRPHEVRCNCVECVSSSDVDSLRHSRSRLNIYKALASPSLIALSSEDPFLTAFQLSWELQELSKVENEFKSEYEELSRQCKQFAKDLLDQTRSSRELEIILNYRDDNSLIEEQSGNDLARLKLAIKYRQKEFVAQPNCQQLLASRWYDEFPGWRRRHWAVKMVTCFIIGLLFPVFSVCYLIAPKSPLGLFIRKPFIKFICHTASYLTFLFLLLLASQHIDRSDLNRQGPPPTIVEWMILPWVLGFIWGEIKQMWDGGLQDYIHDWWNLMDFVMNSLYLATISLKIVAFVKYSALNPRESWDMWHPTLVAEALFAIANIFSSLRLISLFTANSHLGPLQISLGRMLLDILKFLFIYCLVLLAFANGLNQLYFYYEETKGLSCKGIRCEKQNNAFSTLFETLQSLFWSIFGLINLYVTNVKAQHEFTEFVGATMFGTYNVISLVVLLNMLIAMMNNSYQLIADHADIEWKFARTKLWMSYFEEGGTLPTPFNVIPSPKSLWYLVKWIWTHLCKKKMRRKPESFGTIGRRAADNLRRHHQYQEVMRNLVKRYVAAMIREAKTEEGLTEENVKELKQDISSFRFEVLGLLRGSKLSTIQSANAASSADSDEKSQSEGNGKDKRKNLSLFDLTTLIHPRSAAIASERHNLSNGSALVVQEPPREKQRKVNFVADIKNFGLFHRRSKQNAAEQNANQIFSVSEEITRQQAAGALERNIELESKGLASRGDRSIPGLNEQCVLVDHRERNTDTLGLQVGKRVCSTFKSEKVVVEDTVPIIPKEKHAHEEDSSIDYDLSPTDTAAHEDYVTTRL
Put plainly: block of DAMGO-driven TRPC4 calcium entry – cell-based, HEK293 TRPC4/mu-opioid, Fluo-4 calcium, dose response (AID 434942).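 Also: potency of inhibitors blocking the TRPC4 calcium response.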 In kind it is functional.

The target in experiment [11] is T2, Coagulation factor XII (Homo sapiens, UniProt P00748).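 Also: activated factor XIIa alpha cleaving a fluorogenic AMC peptide substrate; inhibitor potency from loss of enzyme activity.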
T2 sequence (P00748 whole entry): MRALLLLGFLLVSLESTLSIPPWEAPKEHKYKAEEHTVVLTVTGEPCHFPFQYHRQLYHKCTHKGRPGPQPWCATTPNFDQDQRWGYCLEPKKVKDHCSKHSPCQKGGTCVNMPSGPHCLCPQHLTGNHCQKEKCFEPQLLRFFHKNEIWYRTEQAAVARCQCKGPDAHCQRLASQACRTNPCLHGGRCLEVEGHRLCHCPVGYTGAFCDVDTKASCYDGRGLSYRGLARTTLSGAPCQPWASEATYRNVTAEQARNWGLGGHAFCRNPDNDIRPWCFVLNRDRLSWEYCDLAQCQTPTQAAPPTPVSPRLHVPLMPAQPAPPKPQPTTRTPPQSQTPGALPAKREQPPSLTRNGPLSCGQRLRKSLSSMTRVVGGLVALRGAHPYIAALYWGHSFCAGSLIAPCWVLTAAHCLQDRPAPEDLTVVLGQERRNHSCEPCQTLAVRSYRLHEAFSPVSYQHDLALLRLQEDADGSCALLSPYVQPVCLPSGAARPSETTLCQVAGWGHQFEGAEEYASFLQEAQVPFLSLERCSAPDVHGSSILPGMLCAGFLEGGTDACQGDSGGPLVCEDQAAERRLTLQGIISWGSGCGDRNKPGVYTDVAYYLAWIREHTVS
In kind it is functional.

Experiment [12] addresses Estrogen receptor beta (Homo sapiens, UniProt Q92731).
The nature of experiment [13]: HPDE-C7 pancreatic duct cell viability loss – fluorescence, HTS (AID 430). In kind it is functional, cell-based. The settings on record: Homo sapiens.
Experiment [14] can be described thus: viability loss of HPDE-C7K cells – cell-based, fluorescence, HTS, primary screen (AID 431). To be noted: Homo sapiens. It counts as functional.
Experiment [15] concerns the target T3, Replicative DNA helicase DnaB (Mycobacterium tuberculosis, UniProt P9WMR3).
T3 sequence (P9WMR3 whole entry): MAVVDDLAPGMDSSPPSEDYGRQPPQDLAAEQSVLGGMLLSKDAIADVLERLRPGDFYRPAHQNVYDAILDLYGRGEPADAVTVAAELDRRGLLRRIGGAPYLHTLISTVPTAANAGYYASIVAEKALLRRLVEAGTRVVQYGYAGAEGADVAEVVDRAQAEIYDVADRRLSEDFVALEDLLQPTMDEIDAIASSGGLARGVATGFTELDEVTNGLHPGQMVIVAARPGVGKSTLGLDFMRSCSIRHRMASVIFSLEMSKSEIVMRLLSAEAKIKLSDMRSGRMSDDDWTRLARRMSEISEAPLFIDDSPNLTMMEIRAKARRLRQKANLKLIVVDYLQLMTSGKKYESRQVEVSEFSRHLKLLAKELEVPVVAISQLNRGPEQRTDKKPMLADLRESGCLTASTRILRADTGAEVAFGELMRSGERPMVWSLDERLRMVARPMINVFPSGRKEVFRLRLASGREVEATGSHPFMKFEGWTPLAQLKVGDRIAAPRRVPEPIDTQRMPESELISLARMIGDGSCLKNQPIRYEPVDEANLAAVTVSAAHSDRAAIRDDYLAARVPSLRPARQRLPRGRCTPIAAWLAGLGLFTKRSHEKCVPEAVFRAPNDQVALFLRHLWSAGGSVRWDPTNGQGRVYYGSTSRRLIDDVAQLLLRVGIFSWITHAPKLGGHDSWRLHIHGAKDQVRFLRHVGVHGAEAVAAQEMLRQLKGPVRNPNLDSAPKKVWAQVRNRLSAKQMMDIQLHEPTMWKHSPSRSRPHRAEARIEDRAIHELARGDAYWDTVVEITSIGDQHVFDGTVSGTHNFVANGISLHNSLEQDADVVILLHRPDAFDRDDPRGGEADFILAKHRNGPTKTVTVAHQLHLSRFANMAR
Put plainly: DnaB intein splicing inhibitors, dose response, biochemical, cell-free fluorescence (AID 449749). It counts as functional.

The nature of experiment [16]: viability loss in THP-1 monocytes – THP-1 cells, cytotoxicity control for Vif-APOBEC3G degradation inhibitor project, dose response (AID 1117359). It counts as functional. The settings on record: THP-1.
Experiment [17] has as its target T4, Protein RecA (Mycobacterium tuberculosis, UniProt P9WHJ3).
T4 sequence (P9WHJ3 whole entry): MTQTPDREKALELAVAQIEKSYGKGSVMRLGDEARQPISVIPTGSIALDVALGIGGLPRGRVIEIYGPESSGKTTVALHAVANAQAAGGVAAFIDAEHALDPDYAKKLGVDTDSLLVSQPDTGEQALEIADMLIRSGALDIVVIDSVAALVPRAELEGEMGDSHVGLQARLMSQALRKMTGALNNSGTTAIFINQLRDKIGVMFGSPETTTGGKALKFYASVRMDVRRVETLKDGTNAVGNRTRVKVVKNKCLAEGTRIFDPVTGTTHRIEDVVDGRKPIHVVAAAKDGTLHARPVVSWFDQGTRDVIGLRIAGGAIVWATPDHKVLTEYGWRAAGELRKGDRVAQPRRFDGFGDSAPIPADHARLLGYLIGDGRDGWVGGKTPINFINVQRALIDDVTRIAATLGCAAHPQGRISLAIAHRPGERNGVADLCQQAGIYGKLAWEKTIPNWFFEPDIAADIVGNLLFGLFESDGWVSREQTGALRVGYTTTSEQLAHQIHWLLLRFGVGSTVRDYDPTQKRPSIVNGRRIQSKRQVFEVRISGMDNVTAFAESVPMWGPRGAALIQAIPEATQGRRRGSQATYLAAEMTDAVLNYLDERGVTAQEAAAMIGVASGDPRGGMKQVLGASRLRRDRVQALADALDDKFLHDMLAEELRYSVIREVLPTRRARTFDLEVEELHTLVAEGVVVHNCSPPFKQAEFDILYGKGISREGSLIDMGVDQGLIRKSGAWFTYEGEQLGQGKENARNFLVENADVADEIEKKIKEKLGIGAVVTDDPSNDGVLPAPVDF
Put plainly: Fluorescence Cell-Free Homogeneous Dose Retest to Identify Inhibitors of RecA-Intein Splicing Activity. [Related pubchem assays (depositor defined):AID2097, AID2223, AID489010, AID492950]. It counts as functional.

Experiment [18] addresses Large T antigen (Simian virus 40, UniProt P03070). It counts as functional, Betapolyomavirus macacae.
Experiment [19] can be described thus: Luminescence Cell-Based Dose Confirmation HTS to Identify Inhibitors of Platelet Dense Granule Release. [Related pubchem assays: 1663 (Primary HTS), 1678 (Summary of Project)]. In kind it is functional.
Experiment [20] has as its target Luciferin 4-monooxygenase (Photinus pyralis, UniProt P08659). Put plainly: inhibition of purified Photinus pyralis luciferase – biochemical, luminescence, dose response (AID 1891).
In experiment [21] the target is DNA dC->dU-editing enzyme APOBEC-3A (Homo sapiens, UniProt P31941). The experiment in a line: A3A deaminase inhibition for selectivity – biochemical, dose response (AID 504722). It counts as functional.
DNA dC->dU-editing enzyme APOBEC-3A, sequence (P31941 whole entry): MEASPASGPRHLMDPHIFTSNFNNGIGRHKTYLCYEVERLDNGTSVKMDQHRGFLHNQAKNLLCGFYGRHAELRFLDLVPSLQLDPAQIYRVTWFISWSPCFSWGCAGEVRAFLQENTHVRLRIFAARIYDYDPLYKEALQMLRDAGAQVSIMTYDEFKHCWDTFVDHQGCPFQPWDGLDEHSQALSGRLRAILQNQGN
Experiment [22] has as its target DNA dC->dU-editing enzyme APOBEC-3G (Homo sapiens, UniProt Q9HC16). The experiment in a line: Dose Response confirmation of small molecule APOBEC3G DNA Deaminase Inhibitors via a fluorescence-based single-stranded DNA deaminase assay. [Related pubchem assays (depositor defined):AID493012, AID493028]. It counts as functional.

Activity calls are given as the source filed them.

Estrogen receptor beta, sequence (Q92731 whole entry): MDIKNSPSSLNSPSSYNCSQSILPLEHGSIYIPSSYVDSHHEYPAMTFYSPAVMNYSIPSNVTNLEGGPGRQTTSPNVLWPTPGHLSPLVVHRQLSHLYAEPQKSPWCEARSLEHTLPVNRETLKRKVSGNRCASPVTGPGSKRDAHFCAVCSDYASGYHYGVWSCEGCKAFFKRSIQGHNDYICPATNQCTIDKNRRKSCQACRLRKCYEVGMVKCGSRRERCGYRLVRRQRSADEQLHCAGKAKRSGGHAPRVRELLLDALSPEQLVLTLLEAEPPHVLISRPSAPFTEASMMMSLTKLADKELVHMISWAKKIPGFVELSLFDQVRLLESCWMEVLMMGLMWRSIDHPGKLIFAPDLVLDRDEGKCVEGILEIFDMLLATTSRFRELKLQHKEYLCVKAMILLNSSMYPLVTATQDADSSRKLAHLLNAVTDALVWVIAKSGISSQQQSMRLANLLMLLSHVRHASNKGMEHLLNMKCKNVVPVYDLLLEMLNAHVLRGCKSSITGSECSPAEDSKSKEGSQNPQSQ
DNA dC->dU-editing enzyme APOBEC-3G, sequence (Q9HC16 whole entry): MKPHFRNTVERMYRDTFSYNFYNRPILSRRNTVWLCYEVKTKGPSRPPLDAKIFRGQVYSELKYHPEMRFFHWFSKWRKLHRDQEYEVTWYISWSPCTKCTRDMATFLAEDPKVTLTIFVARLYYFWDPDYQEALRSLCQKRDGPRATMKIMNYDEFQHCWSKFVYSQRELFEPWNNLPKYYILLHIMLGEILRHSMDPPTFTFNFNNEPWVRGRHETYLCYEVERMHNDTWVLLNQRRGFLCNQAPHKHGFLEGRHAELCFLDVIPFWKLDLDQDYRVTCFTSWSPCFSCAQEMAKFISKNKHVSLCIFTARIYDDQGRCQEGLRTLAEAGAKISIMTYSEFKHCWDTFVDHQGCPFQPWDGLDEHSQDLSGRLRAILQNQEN
Cytochrome P450 2D6, sequence (P10635 whole entry): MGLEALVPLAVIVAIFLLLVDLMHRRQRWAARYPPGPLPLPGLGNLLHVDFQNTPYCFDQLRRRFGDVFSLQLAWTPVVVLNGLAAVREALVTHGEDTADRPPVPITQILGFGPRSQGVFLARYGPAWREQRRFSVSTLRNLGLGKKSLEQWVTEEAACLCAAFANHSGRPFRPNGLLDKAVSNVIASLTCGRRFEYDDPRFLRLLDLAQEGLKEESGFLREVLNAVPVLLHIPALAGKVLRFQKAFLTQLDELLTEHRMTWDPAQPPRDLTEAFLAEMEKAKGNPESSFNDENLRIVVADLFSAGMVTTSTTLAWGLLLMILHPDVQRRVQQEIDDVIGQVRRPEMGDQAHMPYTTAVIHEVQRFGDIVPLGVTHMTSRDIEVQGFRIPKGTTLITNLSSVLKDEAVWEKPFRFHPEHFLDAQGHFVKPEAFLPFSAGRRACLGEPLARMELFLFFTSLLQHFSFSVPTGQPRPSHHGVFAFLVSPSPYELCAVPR
Large T antigen, sequence (P03070 whole entry): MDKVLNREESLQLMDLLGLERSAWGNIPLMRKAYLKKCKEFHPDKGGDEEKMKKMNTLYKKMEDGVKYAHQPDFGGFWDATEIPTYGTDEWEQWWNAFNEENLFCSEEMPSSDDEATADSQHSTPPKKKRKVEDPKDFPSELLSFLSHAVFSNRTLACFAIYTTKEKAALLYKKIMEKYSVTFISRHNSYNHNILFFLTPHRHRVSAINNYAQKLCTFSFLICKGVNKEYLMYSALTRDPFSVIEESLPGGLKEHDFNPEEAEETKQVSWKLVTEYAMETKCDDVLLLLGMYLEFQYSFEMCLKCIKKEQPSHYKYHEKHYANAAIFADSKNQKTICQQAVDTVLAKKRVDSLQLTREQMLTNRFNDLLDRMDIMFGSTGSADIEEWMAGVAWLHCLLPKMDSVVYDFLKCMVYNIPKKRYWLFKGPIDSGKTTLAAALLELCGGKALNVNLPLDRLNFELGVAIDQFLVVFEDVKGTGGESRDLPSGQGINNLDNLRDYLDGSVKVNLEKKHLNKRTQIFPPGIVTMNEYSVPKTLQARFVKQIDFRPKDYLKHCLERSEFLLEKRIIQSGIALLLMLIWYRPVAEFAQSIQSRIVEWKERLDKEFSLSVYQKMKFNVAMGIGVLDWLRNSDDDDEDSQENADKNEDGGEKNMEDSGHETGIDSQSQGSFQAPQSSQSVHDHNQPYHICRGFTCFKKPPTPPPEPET
Luciferin 4-monooxygenase, sequence (P08659 whole entry): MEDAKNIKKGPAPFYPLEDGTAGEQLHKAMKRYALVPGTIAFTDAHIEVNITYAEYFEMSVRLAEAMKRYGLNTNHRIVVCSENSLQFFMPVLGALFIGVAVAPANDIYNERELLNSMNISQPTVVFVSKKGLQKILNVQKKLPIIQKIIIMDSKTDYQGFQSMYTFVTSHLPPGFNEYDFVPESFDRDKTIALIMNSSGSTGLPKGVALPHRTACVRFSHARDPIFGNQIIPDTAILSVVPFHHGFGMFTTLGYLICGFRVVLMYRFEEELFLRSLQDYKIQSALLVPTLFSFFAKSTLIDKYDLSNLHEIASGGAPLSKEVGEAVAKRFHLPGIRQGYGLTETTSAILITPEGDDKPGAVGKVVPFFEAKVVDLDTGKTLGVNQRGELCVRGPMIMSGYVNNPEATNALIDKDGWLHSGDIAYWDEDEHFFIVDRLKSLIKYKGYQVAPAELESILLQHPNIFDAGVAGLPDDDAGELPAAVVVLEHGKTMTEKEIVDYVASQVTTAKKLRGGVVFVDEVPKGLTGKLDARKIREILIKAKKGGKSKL

Regarding `OCCCCNCc1ccc(OCc2ccc(Cl)cc2Cl)cc1`, the half-maximal effective concentration (EC50) in [1] was 1.68 µM (active); in experiment [2], 17.3 µM (active); in experiment [3] it was 9.83 µM (active); in experiment [4], 10.9 µM (active).
With `Cc1nn(-c2cccc(Cl)c2)c(O)c1/C=N/n1c(C)nc2ccccc2c1=O`, the CC50 in experiment [5] was > 20 µM (active); in experiment [6], 28.7 µM (active). In addition, the IC50 in experiment [7] is 45.1 µM (active).
As for `Cc1cccc(NC(S)=NC2CC3CCCC(C2)N3Cc2cccs2)c1` (configuration not stated), the concentration at half-maximal activity (AC50) in [8] was 28.2 µM (inconclusive); in [9] it was 3.98 µM (inconclusive). Further, the results for the EC50 in [3] and in experiment [4] were 92.3 µM (active) and 65.3 µM (active), respectively.
Regarding `COC(=O)CSc1nnc(-c2sc3cc(OC)ccc3c2Cl)n1C`, the EC50 in experiment [10] was 0.531 µM (active). In [11], the IC50 is > 50 µM (inactive).
As to `Cc1nn2c(-c3cccc(NC(=O)CSc4nc5ccccc5o4)c3)nnc2c2ccccc12`, in experiment [12], the 50% inhibitory concentration (IC50) is recorded as > 50 µM (not active). The EC50 in experiment [13] was 7.91 µM (active); in [14], 7.73 µM (active).
Turning to `Cc1cccc(-n2c(O)nc3c(C(N)=O)nc(-c4ccccc4Cl)nc32)c1`, the results for the EC50 in experiment [3] and in [4] were 11.2 µM (active) and 10.5 µM (active), respectively.
For `CC1=C/C(=N/c2c(C)n(C)n(-c3ccccc3)c2=O)C=CC1=O`, the AC50 in experiment [15] is 29.5 µM (active). For the same compound, the CC50 in [16] is > 40 µM (active). In [17], the EC50 is 14 µM (active).
`COc1ccc(N2C(=O)C(Cl)=C(N3CCCC(C)C3)C2=O)cc1` (configuration not stated): in experiment [11], the IC50 is > 50 µM (inactive).
Consider `O=c1n(Cc2ccc(Cl)cc2)c2sc3c(c2c2ncnn12)CCCC3`, for which the values for the EC50 in [13] and in experiment [14] were 13.3 µM (active) and 13.1 µM (active), respectively.
As for `CCOc1cc(/C=N/NC(=O)N/N=C/c2ccc(O)c(OCC)c2)ccc1O`, the IC50 in experiment [18] is 4.27 µM (active). The EC50 in [19] was 11.8 µM (active); in experiment [20], 1.2 µM (active).
In the case of `COC(=O)c1cccc(NS(=O)(=O)c2ccc(OC)c(OC)c2)c1C`, in [11], the IC50 is > 50 µM (inactive).
With `S=c1[nH]nc(Cc2cccs2)n1-c1ccccc1`, the IC50 in experiment [21] was > 100 µM (inactive); in experiment [22], 7.51 µM (active).
`O=C(c1ccc(Cl)c([N+](=O)[O-])c1)N(Cc1ccc(Cl)cc1)C1CCS(=O)(=O)C1` (configuration not stated): the EC50 is 17.9 µM (active) in experiment [3] and 26.8 µM (active) in experiment [4].

Source of the values: ChEMBL document CHEMBL1201862, “PubChem BioAssay data set” (2004).
